{
  "source": "patent US20110129423A1",
  "about": "“ANTICANCER COMPOUNDS AND SCREENING METHOD” (priority 2009, published 2011)",
  "key": {"[1]": {"system": "ACTH, LH, and FSH", "assay": "Peptide hormone assays (ELISA) in rat plasma", "assay_type": "in vivo", "settings": "rats, 100 mg/kg daily for 14 days", "experimental": "Peptide Hormone Assays. ELISA kits for the quantification of ACTH, LH, and FSH in rat plasma were obtained from USCN Life, Wuhan, China. All other reagents were obtained from Sigma Chemical Co, St. Louis, Mo. ELISA results were measured on an ELx800 plate reader (Bio-Tek, Winooski, Vt.). Samples were assayed for ACTH, LH, and FSH concentration by means of an ELISA assay kit according to the manufacturer's instructions. For the rat samples, although 100 μL of undiluted plasma were required for each assay, […], 100 μL (LH), or 30 μL (FSH) were used in order to obtain results in the quantifiable range of the assay. Samples from Day 14 were assayed in duplicate; samples from Day 0 and Day 7 were assayed singly due to the small sample volume available. Concentrations were calculated from an eight-point standard curve. Thirty-five μL of dog plasma was used for the LH assay.\nThe compound 17α-ethynylandrostane-3α,17β-diol (100 mg/kg) was administered to rats (n=5) daily for 14 days. The compound was a 20 mg/mL solution made of […] 2-hydroxypropyl-β-cyclodextrin in water. Vehicle lacking the compound was administered to control animals (n=5). By day 7 in the dosing period, systemic (serum) levels of testosterone, estradiol, estrone and DHEA had fallen by over 99% to essentially undetectable levels in the treated animals. Changes in LH, FSH and ACTH were not observed."}, "[2]": {"system": "systemic (serum) levels of testosterone, estradiol, estrone and DHEA", "assay": "Systemic steroid hormone levels in rats dosed daily for 14 days", "assay_type": "in vivo, rat", "settings": "100 mg/kg daily, by day 7", "experimental": "Plasma samples were processed by liquid/liquid extraction using MTBE. The organic portions containing the analytes were evaporated and dried extracts were incubated at 60° C. with a dansyl chloride solution. The resulting steroid derivatives were analyzed on a Waters Xbridge™ Phenyl column by reversed-phase high-performance liquid chromatography (Agilent, Palo Alto, Calif. and Leap Technologies, Carrboro, N.C.) coupled with a tandem quadrupole mass spectrometer (Waters, Beverly, Mass.). Calibration curves for standards and QC samples for […] (Estradiol, E2) and Estrone (E1) were analyzed in parallel with the samples. Sample responses were acquired and concentrations were determined based on the calibration using Masslynx™ analysis software (Waters, Beverly, Mass.). Determination of QC statistics was performed by subtracting the endogenous concentration determined in native plasma from the total concentration found in the QC sample. No PK calculations were performed on this study. The quantifiable range of detection for E2 was 5.0 to 200.0 pg/mL. The quantifiable range of detection for E1 was 10.0 to 200.0 pg/mL. Values below the detection limit were identified as such and reported.\n(§1) T, A4 and DHEA assay. Plasma samples were processed by liquid/liquid extraction using MTBE (methyl-t-butyl ether). The organic portions containing the free steroids were evaporated and the dried extracts were incubated at 60° C. with a hydroxylamine hydrochloride solution. The resulting steroid-oxime derivatives were extracted with MTBE. The organic portions containing the steroid-oxime derivatives were evaporated to dryness, reconstituted in 80/20 water/acetonitrile, and analyzed on a Waters Xbridge™ Phenyl column by reversed-phase high-performance liquid chromatography (Agilent, Palo Alto, Calif. and Leap Technologies, Carrboro, N.C.) coupled with a tandem quadrupole mass spectrometer (Waters, Beverly, Mass.). Calibration curves prepared in water and QC samples prepared in native plasma for T (4-androstene-3-one-17β-ol), A4 (4-androstene-3,17-dione), and DHEA were analyzed in parallel with the samples. Sample responses were acquired and concentrations were determined based on the calibration curve using Masslynx™ analysis software (Waters, Beverly, Mass.). Determination of QC statistics was performed by subtracting the endogenous concentration determined in native plasma from the total concentration found in the QC sample.\nThe quantifiable range of detection for T was 10.0 to 20000.0 pg/mL in rat (example 3) and dog (this example) samples. The quantifiable range of detection for A4 was 10.0 to 20000.0 pg/mL in rats and 20.0 to 20000.0 pg/mL in dogs. The quantifiable range of detection for DHEA was 50.0 to 200.0 pg/mL in both species. […]"}, "[3]": {"system": "steroidogenesis in dogs", "assay": "Effects on steroidogenesis in dogs in vivo (plasma T, A4, DHEA by LC-MS/MS)", "design": "species or system dog", "settings": "for Testosterone Concentrations: male dogs", "experimental": "(§2) Effects of the test compound 17α-ethynylandrostane-3α,17β-[…] on steroidogenesis in dogs in vivo. Samples were collected from male dogs (5/group) treated with 0, 20, 60 or 200 mg/kg of 17α-ethynylandrostane-3α,17β-diol before dosing on days 1, 14, and 28. The animals were dosed daily for 28 days. The samples were analyzed for testosterone (T), androstendione (A4), and dehydroepiandrosterone (DHEA). Day 1 and day 28 vehicle and 60 mg/kg samples were assayed for luteinizing hormone. The compound was administered by oral administration of a 20 mg/mL 17α-ethynylandrostane-3α,17β-diol solution made of 40% 2-hydroxypropyl-β-cyclodextrin in water.\nas §1\nThe quantifiable range of detection for T was 10.0 to 20000.0 pg/mL in rat (example 3) and dog (this example) samples. The quantifiable range of detection for A4 was 10.0 to 20000.0 pg/mL in rats and 20.0 to 20000.0 pg/mL in dogs. The quantifiable range of detection for DHEA was 50.0 to 200.0 pg/mL in both species. Values below the detection limit were identified as such."}, "[4]": {"assay": "Toxicity observation in the 28-day dog study", "assay_type": "in vivo", "settings": "dogs, 20, 60 or 200 mg/kg oral daily for 28 days", "experimental": "as §2"}, "[5]": {"settings": "dogs, end of 28 days of daily oral dosing, dose group not specified"}},
  "note": "Where “and” joins values, the source holds several entries; their conditions need not be identical. Equal values may be shown once.",
  "data": [
    {"smiles": "C#C[C@]1(O)CC[C@H]2[C@@H]3CCC4C[C@H](O)CC[C@]4(C)[C@H]3CC[C@@]21C", "note": "(stereo partly drawn) [17α-ethynylandrostane-3α,17β-diol]", "values": [
      {"measurement": "changes in ACTH", "setting": "[1]", "result": "not observed"},
      {"measurement": "changes in FSH", "setting": "[1]", "result": "not observed"},
      {"measurement": "changes in LH", "setting": "[1]", "result": "not observed"},
      {"measurement": "fall of systemic (serum) level of DHEA", "setting": "[2]", "result": "over 99%"},
      {"measurement": "fall of systemic (serum) level of estradiol", "setting": "[2]", "result": "over 99%"},
      {"measurement": "fall of systemic (serum) level of estrone", "setting": "[2]", "result": "over 99%"},
      {"measurement": "fall of systemic (serum) level of testosterone", "setting": "[2]", "result": "over 99%"},
      {"measurement": "decrease of A4 (androstendione) level compared to vehicle control", "setting": "[3]; [5]", "result": "about 99%"},
      {"measurement": "decrease of DHEA level", "setting": "[3]; [5]", "result": "about 90%"},
      {"measurement": "decrease of T (testosterone) level compared to vehicle control", "setting": "[3]; [5]", "result": "about 99%"},
      {"measurement": "Testosterone Concentrations", "setting": "[3]; 20 mg/kg oral daily, day 1 sample before dosing (baseline), individual animals A111M-A115M, 20 mg/kg", "result": "1747.2 pg/mL and 1677.0 pg/mL and 668.6 pg/mL and 771.4 pg/mL and 2450.6 pg/mL"},
      {"measurement": "Testosterone Concentrations", "setting": "[3]; 20 mg/kg oral daily, day 14, individual animals A111M-A115M, 20 mg/kg", "result": "67.8 pg/mL and 51.1 pg/mL and 344.9 pg/mL and 90.1 pg/mL and 94.4 pg/mL"},
      {"measurement": "Testosterone Concentrations", "setting": "[3]; 20 mg/kg oral daily, day 28, individual animals A111M-A115M, BQL = below the limit of quantitation (lower limit 10.0 pg/mL), 20 mg/kg", "result": "19.3 pg/mL and 60.8 pg/mL and 143.8 pg/mL and 173.0 pg/mL and BQL"},
      {"measurement": "Testosterone Concentrations", "setting": "[3]; 60 mg/kg oral daily, day 1 sample before dosing (baseline), individual animals A121M-A125M, 60 mg/kg", "result": "46.9 pg/mL and 711.2 pg/mL and 723.8 pg/mL and 1371.3 pg/mL and 1659.6 pg/mL"},
      {"measurement": "Testosterone Concentrations", "setting": "[3]; 60 mg/kg oral daily, day 14, individual animals A121M-A125M, 60 mg/kg", "result": "173.7 pg/mL and 38.5 pg/mL and 110.4 pg/mL and 144.1 pg/mL and 338.0 pg/mL"},
      {"measurement": "Testosterone Concentrations", "setting": "[3]; 60 mg/kg oral daily, day 28, individual animals A121M-A125M, BQL = below the limit of quantitation (lower limit 10.0 pg/mL), 60 mg/kg", "result": "18.9 pg/mL and BQL (4×)"},
      {"measurement": "Testosterone Concentrations", "setting": "[3]; 200 mg/kg oral daily, day 1 sample before dosing (baseline), individual animals A131M-A135M, 200 mg/kg", "result": "503.3 pg/mL and 350.3 pg/mL and 1816.6 pg/mL and 1891.0 pg/mL"},
      {"measurement": "Testosterone Concentrations", "setting": "[3]; 200 mg/kg oral daily, day 14, individual animals A131M-A135M, BQL = below the limit of quantitation (lower limit 10.0 pg/mL), 200 mg/kg", "result": "BQL (2×) and 119.5 pg/mL and 236.6 pg/mL and 18.1 pg/mL"},
      {"measurement": "Testosterone Concentrations", "setting": "[3]; 200 mg/kg oral daily, day 28, individual animals A131M-A135M, BQL = below the limit of quantitation (lower limit 10.0 pg/mL), 200 mg/kg", "result": "BQL (2×) and 11.2 pg/mL and 10.2 pg/mL"},
      {"measurement": "toxicity in the animals", "setting": "[4]", "result": "Significant toxicity was not observed"}
    ]}
  ]
}
